Results taken from patent US20240246963A1, “BIFUNCTIONAL COMPOUNDS AND PHARMACEUTICAL USES THEREOF” (RISEN (SUZHOU) PHARMA TECH CO., LTD., priority 2022, published 2024).
pIC50: −log10 of the molar value.

Tests used:
Format in all cases: cell-based
[1] = tested on: AsPc-1 cells (G12D); assay: Cell proliferation study (Cell Titer Glo, 72 hours), AsPc-1; settings: Homo sapiens, ASPC1
Experimental: (§1) Aspc-1(Cobioer, CBP60546), GP2D(Cobioer, CBP60683), Mia paca2 (Cobioer, CBP60136), NCI-H358 (Cobioer, CBP60544), H727 (Cobioer, CBP60182), MKN-1 (Cobioer, CBP60486), and PSN1 (Cobioer, CBP61215) cells in exponential growth phase were seeded into a 96-well plate (Greiner, 655090) at density of 3E3/well. Cells were cultured overnight at 37° C. with 5% CO2. On the next day, cells were treated with compound at various concentrations for 72 hours in 37° C., 5% CO2 incubator (final DMSO concentration was 0.1%). After treatment, 100 μL Cell Tier Glo (Promega, G7573) were added to every well on the cell plate and incubated at room temperature (RT) for 10 minutes. Cell growth status was measured with Cell Tier Glo (Promega, G7573) following manufacturer's directions. Inhibition level was calculated according to the following formula: […]
(§2) where the “Maximum Signal” are signal of wells containing DMSO without compound; the “Minimum Signal” are signal of wells recorded at Day 0 prior to commencement of the experiment; and the “Test compound signal” are signal of wells containing compound at established concentrations.
(§3) The inhibition curve was obtained with GraphPad 7.0 software using four-parameter equation.

[2] = target: T1, RAS G12D protein (Homo sapiens, UniProt P01116, G12D); assay: Protein degradation study (western blot) in Aspc-1 cells; settings: for Dmax: ASPC1; for DC50: half-maximum degradation concentration on G12D in Aspc-1 cells
T1 construct: host or cells: Aspc-1 (AsPC-1) cells
T1 sequence (P01116 1-188 isoform P01116-2 G12D): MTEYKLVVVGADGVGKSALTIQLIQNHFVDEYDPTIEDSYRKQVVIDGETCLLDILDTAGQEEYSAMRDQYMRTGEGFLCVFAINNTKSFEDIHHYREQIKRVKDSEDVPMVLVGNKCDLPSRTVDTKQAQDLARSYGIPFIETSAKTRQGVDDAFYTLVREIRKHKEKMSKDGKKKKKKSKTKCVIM
Experimental: Aspc-1 (Cobioer, CBP60546) cells in exponential growth phase were inoculated on a 6-well cell culture plate (Corning, 3516) at density of 1E6/well; and cells in the plate were cultured in a 37° C. incubator containing 5%-carbon dioxide. The next day, test compounds were dissolved in DMSO (Sigma, RNBF5902) for the preparation of a 10-mM concentration stock solution. The stock solution was diluted with complete medium (RPMI-1640 supplemented with 10% fetal bovine serum, 1% penicillin-streptomycin), yielding working solutions of various concentrations. The plate, after the addition of compounds, was placed in a 5% carbon dioxide incubator, and incubated at 37° C. for 24 hours (final DMSO concentration was 0.1%). The plate was then removed from the incubator, and the cells were washed twice with precooled PBS (Gibco, 14190250), followed by addition of 80 μL RIPA (CST, 9806S) lysis buffer (containing protease inhibitor (Invitrogen™, AM2696)) to each well. The adherent cells were scraped off with a cell scraper, and the cell lysate was transferred to a 1.5 mL centrifuge tube followed with a 30-minute incubation on ice. The lysate was then clarified with centrifugation at 12000 rpm for 10 min at 4° C. The supernatant was transferred into a new 1.5 mL centrifuge tube, and protein concentration was measured with BCA protein detection kit (Thermo Fisher, 23225). G12D protein level was assessed by western blot. A mixture of cell lysate (40 μL) and loading buffer (10 μL, 5×SDS (Beyotime, P0015L)) was denatured in a water-bath at 95° C. for 10 min. The denatured protein sample, at 30 μg/well, was loaded into a corresponding well of a 4-20% Bis-Tris gel (Kingsley, M00656). Protein samples were initially electrophoresed at 80 V for 30 minutes, followed by 120 V for 40 minutes, until the bromophenol blue strip ran to an appropriate position. After electrophoresis, iBlot2 (Life Technologies, IB21001) was used to transfer the separated samples onto PVDF film. The PVDF membrane was washed with double-distilled water and then blocked in TBST (Thermo Scientific, 28360) buffer containing 5% non-fat milk, for 2 hours. Blocked membrane was rinsed with tris-buffered saline tween-2 (Thermo Scientific, 28360, TBST) three times, 10 minutes each. Membrane was then incubated with 1:1000 diluted RAS Gi2D primary antibody (CST, cat #14429S) overnight at 4° C. Membrane was rinsed in a way described previously followed by 1 hour incubation of secondary antibody at room temperature. After washing the film for three times with TBST, ECL color developing solution was applied, and image was captured with Biorad Chemi Doc gel imager. The band gray value was quantified (Image Lab), and protein degradation level was calculated according to the following formulas:
Level of RAS G12D protein expression=(RAS G12D−compound/β-Actin)−compound/(RAS G12D−DMSO/β-Actin−DMSO)
Level of degradation (%)=(1−Rate of RAS G12D protein expression)×100
Symbols of −, +, ++, +++, ++++, +++++ indicate that the degradation level of Ras protein induced by test compounds was 10% or less, 10 to 30%, 30 to 60%, 60 to 70%, 70 to 75%, and greater than 75%, respectively. “NT” indicates not tested.
“NT” indicates not tested.

[3] = tested on: NCI-H727 cells (G12V); assay: Cell proliferation study (Cell Titer Glo, 72 hours), NCI-H727; settings: Homo sapiens
Experimental: as §1, §2, §3

[4] = tested on: GP2D cells (G12D); assay: Cell proliferation study (Cell Titer Glo, 72 hours), GP2D
Experimental: as §1, §2, §3

[5] = tested on: NCI-H358 cells (G12C); assay: Cell proliferation study (Cell Titer Glo, 72 hours), NCI-H358; settings: Homo sapiens
Experimental: as §1, §2, §3

[6] = ASPC1, 24 h, 0.005 μM compound, Aspc-1 cells, 24 hours, read-out: Rate of protein degradation (%)
[7] = ASPC1, 24 h, 0.05 μM compound, Aspc-1 cells, 24 hours, read-out: Rate of protein degradation (%)

SMILES | pIC50 [1] | percent protein degradation at 0.005 µM [2, 6] [%] | percent protein degradation at 0.05 µM [2, 7] [%] | Dmax ([2]; G12D in Aspc-1 cells) [%] | DC50 [2] [nM] | pIC50 [3] | pIC50 [4] | pIC50 [5] | DC50 ranking among test compounds ([2]; G12D in Aspc-1 cells) | Rate of protein degradation (%) ([2]; 0.005 μM compound, Aspc-1 cells, 24 hours) | Rate of protein degradation (%) ([2]; 0.05 μM compound, Aspc-1 cells, 24 hours) | percent protein degradation at 0.001 µM ([2]; ASPC1, 24 h, 1 nM compound, Aspc-1 cells, 24 hours, read-out: Rate of protein degradation (%)) [%]
CCc1c(F)ccc2cc(O)cc(-c3ncc4c(N5CCC[C@]6(CCO6)C5)nc(OCC5(CN6CCC7(CC6)CC(N6CCC(c8cc9c(cc8F)c(C8CCC(=O)NC8=O)nn9C)CC6)C7)CC5)nc4c3F)c12 (some centres unmarked) [Compound 205] | 8.63 | 60 to 70 | > 75 | 78 | < 1 | 9.51 | 9.54 | 8.20 |  |  |  | 
CCc1c(F)ccc2cc(O)cc(-c3ncc4c(N5CCC[C@]6(CCO6)C5)nc(OCC5(CN6CCC7(CC6)CC(N6CCC(c8ccc9c%10c(cccc8%10)C(=O)N9C8CCC(=O)NC8=O)CC6)C7)CC5)nc4c3F)c12 (some centres unmarked) [Compound 179a] | 7.24 | > 75 | > 75 | 70 | < 1 | 7.73 | 9.91 | 6.90 | lowest DC50 value |  |  | 
C[C@@]1(O)CCCN(c2nc(OCC3(CN4CCC5(CC4)CC(N4CCC(c6ccc7c8c(cccc68)C(=O)N7C6CCC(=O)NC6=O)CC4)C5)CC3)nc3c(F)c(-c4cc(N)cc(Cl)c4C(F)(F)F)ncc23)C1 (some centres unmarked) [Compound 200] | < 6.00 | 70 to 75 | > 75 |  |  | 7.34 | 9.00 | < 6.00 |  |  |  | 
CCc1c(F)ccc2cc(O)cc(-c3ncc4c(N5CCC[C@@](C)(O)C5)nc(OCC5(CN6CCC7(CC6)CC(N6CCC(c8cc9c(cc8F)c(N8CCC(=O)NC8=O)nn9C)CC6)C7)CC5)nc4c3F)c12 [Compound 235] | 7.20 | 30 to 60 | > 75 | 71 | 1 to 10 | 9.10 |  | 7.99 |  |  |  | 
CCc1c(F)ccc2cc(O)cc(-c3ncc4c(N5CCC[C@]6(CCO6)C5)nc(OCC5(CN6CCC7(CC6)CC(N6CCC(c8ccc9c(C%10CCC(=O)NC%10=O)nn(C)c9c8)CC6)C7)CC5)nc4c3F)c12 (some centres unmarked) [Compound 201] | 8.30 | > 75 | > 75 | 80 | < 1 | 8.68 | 9.59 | 8.00 |  |  |  | 
CCc1c(F)ccc2cc(O)cc(-c3ncc4c(N5CCC[C@]6(CCO6)C5)nc(OCC5(CN6CC(C(=O)N7CCC(c8ccc9c(C%10CCC(=O)NC%10=O)nn(C)c9c8)CC7)C6)CC5)nc4c3F)c12 (some centres unmarked) [Compound 207] | 6.70 | 30 to 60 | 60 to 70 |  |  |  | 8.45 |  |  |  |  | 
CCc1c(F)ccc2cc(O)cc(-c3ccc4c(N5CCC[C@]6(CCO6)C5)nc(OCC5(CN6CCC7(CC6)CC(N6CCC(c8cc9c(cc8F)c(N8CCC(=O)NC8=O)nn9C)CC6)C7)CC5)nc4c3F)c12 [Compound 232] |  | 10 to 30 | 30 to 60 |  |  |  |  |  |  |  |  | 
CCc1c(F)ccc2cc(O)cc(-c3ncc4c(N5CCC[C@]6(CCO6)C5)nc(OCC5(CN6CCC7(CC6)CC(N6CCC(c8ccc(NC9CCC(=O)NC9=O)nc8)CC6)C7)CC5)nc4c3F)c12 (some centres unmarked) [Compound 229] |  | 10 to 30 | 30 to 60 |  |  |  |  |  |  |  |  | 
CCc1cccc2cc(O)cc(-c3ncc4c(N5CCC[C@]6(CCO6)C5)nc(OCC5(CN6CCC7(CC6)CC(N6CCC(c8cc9c(cc8F)c(N8CCC(=O)NC8=O)nn9C)CC6)C7)CC5)nc4c3F)c12 [Compound 238] |  | > 75 | 30 to 60 | 73 | 11 to 50 |  |  |  |  |  |  | 
CCc1c(F)ccc2cc(O)cc(-c3c(Cl)cc4c(N5CCC[C@]6(CCO6)C5)nc(OCC5(CN6CCC7(CC6)CC(N6CCC(c8cc9c(cc8F)c(N8CCC(=O)NC8=O)nn9C)CC6)C7)CC5)nc4c3F)c12 (atropisomer, axis not shown) [Compound 240] |  |  |  |  |  |  |  |  |  | + (10 to 30%) | + (10 to 30%) | 
CCc1c(F)ccc2cc(O)cc(-c3ncc4c(N5CCC[C@]6(CCO6)C5)nc(OCC5(CN6CCC(N7CCC(c8cc9c(cc8F)c(N8CCC(=O)NC8=O)nn9C)CC7)CC6)CC5)nc4c3F)c12 [Compound 225] |  | 30 to 60 | 30 to 60 |  |  |  |  |  |  |  |  | 
CCc1c(F)ccc2cc(O)cc(-c3ncc4c(N5CCC[C@@](C)(O)C5)nc(OCC5(CN6CCC7(CC6)CC(N6CCC(c8cc9c(cc8F)c(N8CCC(=O)NC8=O)nn9C)C(F)(F)C6)C7)CC5)nc4c3F)c12 (some centres unmarked) [Compound 243] |  | 30 to 60 | > 75 | 74 | 1 to 10 |  |  |  |  |  |  | 
CCc1c(F)ccc2cc(O)cc(-c3ncc4c(N5CCC[C@@](C)(O)C5)nc(OCC5(CN6CCC7(CC6)CC(N6CCC(c8ccc9c(c8)CN(C8CCC(=O)NC8=O)C9=O)CC6)C7)CC5)nc4c3F)c12 (some centres unmarked) [Compound 130] | 7.91 | 70 to 75 | 30 to 60 | 73 | < 1 | 8.35 | 9.66 | 7.19 |  |  |  | 70 to 75
CCc1c(F)ccc2cc(O)cc(-c3ncc4c(N5CCC[C@]6(CCO6)C5)nc(OCC5(CN6CCC7(CC6)CC(N6CCC(c8ccc9c(=O)n(C%10CCC(=O)NC%10=O)ccc9c8)CC6)C7)CC5)nc4c3F)c12 (some centres unmarked) [Compound 234] | 7.36 | 30 to 60 | 70 to 75 | 65 | 11 to 50 | 8.36 |  | 7.75 |  |  |  | 
